{"source": "patent US5344926A", "about": "“Process for producing staurosporine derivatives” (Kyowa Hakko Kogyo Co., Ltd., priority 1992, dated 1994)", "key": {"HeLa S3 cells": {"system": "HeLa S3 cells", "experiment": "Growth Inhibition Test on HeLa S3 Cells", "type": "cell-based", "details": "Homo sapiens, 1 h exposure, then 72 h incubation, Neutral Red, read-out: IC50 (cell growth inhibition)", "procedure": "Growth Inhibition Test on HeLa S3 Cells\nHaLa S3 cells were suspended in an MEM medium containing 10% fetal calf serum and 2 mM glutamine at a concentration of 3×10^4 cells/ml, and 0.1 ml of the cell suspension was put into each well of a 96-well microtiter plate.\nAfter culturing at 37° C. overnight in a carbon dioxide gas incubator, 0.05 ml of a test sample appropriately diluted with the medium was added to each well. The cells were further cultured for one hour in the carbon dioxide gas incubator and the culture supernatant was removed. The residue was washed once with a phosphate buffer saline [PBS(-)] and 0.1 ml of a fresh medium was added to each well, and the cells were further incubated at 37° C. for 72 hours in the carbon dioxide gas incubator. After removal of the supernatant, 0.1 ml of culture medium containing 0.02% Neutral Red was added to each well, and the cells were further incubated at 37° C. for one hour in the carbon dioxide gas incubator to stain the cells. After removal of the culture supernatant, each well was washed once with a physiological saline, and the dye was extracted with 0.001N HCl/30% methanol. Absorbance of the extract at 550 nm was measured with a microplate reader. The cell growth inhibition percentage was calculated according to the following formula from the absorbance of the extract of the cells treated with the test compound in various concentrations and that of intact cells. [formula]\nFrom the cell growth inhibition percentage thus obtained, the concentration of the test compound which inhibits cell growth by 50% (IC50) was determined."}, "Protein kinase C": {"system": "Protein kinase C", "experiment": "Protein Kinase C Inhibitory Activity (crude enzyme partially purified from rat brain)", "details": "for selective inhibitory activity on protein kinase C, compared with UCN-01: PKC vs PKA; for IC50 PKC: pH 7.5, 30° C., 3 minutes; for PKA/PKC: ratio of IC50 PKA to IC50 PKC", "procedure": "(1) Protein Kinase C Inhibitory Activity\nProtein kinase C inhibitory activity (PKC) was measured by the method of Kikkawa, et al. (Journal of Biological Chemistry, 257, 13341 (1982)].\nThat is, 10 μl of a test solution containing UCN-01, Compound No. 1-α or Compound No. 1-β was added to 250 μl of a solution containing 2.5 μmoles of magnesium acetate, 50 μg of Histone Type IIS (manufactured by Sigma Co., Ltd.), 20 μg of phosphatidyl serine, 0.8 μg of diolein, 25 nmoles of CaCl2, 5 μg of crude enzyme (partically purified from rat brain according to the method of Kikkawa, et al.) and 5 μmoles of Tris-hydrochloride buffer (pH 7.5), followed by incubation at 30° C. for 3 minutes. Then, phosphorylation was initiated by addition of 1.25 nmoles of [γ-^32 p]ATP(5 to 10×10^3 cpm/nmole), followed by incubation at 30° C. for 3 minutes. The reaction was stopped by adding 25% trichloroacetic acid (TCA), and the reaction solution was filtered through a cellulose acetate membrane (pore size of 0.45 μm) (manufactured by Toyo Filter Paper Co., Ltd.). After the membrane was washed four times with 5% TCA, radioactivity remaining on the membrane was measured. As a control, the same procedure as above was repeated without addition of the test solution and radioactivity was likewise measured. A concentration of the test solution showing 50% inhibition as compared with the control was expressed as IC50."}, "Protein kinase A": {"target": "T1, Protein kinase A (Bos taurus, UniProt P00517)", "T1 construct": "partially purified from calf heart; from tissue; host or cells: calf heart, crude enzyme, partially purified", "experiment": "Protein Kinase A Inhibitory Activity (crude enzyme partially purified from calf heart)", "type": "biochemical", "details": "pH 6.8", "procedure": "(2) Protein Kinase A Inhibitory Activity\nProtein kinase A inhibitory activity (PKA) was measured according to the method of Kuo, et al. [Biochemistry, 64, 1349 (1969)].\nSubsequent procedures were conducted in a manner similar to the case of measuring protein kinase C inhibitory activity described above to determine IC50."}, "platelets": {"system": "platelets", "experiment": "Platelet increasing activity in Balb/c mice", "type": "in vivo", "details": "20 mg/kg i.p. once a day for 5 days; for Number of platelets, individual mouse: 20 mg/kg; for Number of platelets (mean): mean of six mice", "procedure": "Platelet increasing activity of Compound (I-1) was examined. Compound No. 1-α obtained in Example 13 was suspended in 0.3% carboxymethylcellulose aqueous solution containing 5% Tween 80. 0.2 ml of the suspension was intraperitoneally administered to six Balb/c mice (male, aged 7 weeks) at a dosage of 20 mg/kg once a day for 5 days. The blood (20 μl) was collected from the ophthalmic […] at the times, just before the test compound administration (Day 0), the 7th day (Day 7), the 14th day (Day 14), the 17th day (Day 17) and the 28th day (Day 28). The number of platelets was counted by a microcellcounter."}, "[1]": {"details": "Day 0 (just before administration)"}}, "note": "“And” between values parts separate entries of the source, which are not always exact repeats. Equal entries are not always repeated.", "data": [{"compound": "COC1C(N(C)C(=O)CN2CCOCC2)CC2OC1(C)n1c3ccccc3c3c4c(c5c6ccccc6n2c5c31)C(=O)NC4O", "note": "(stereo not drawn) [Compound No. 6]", "values": [{"measurement": "IC50", "setting": "HeLa S3 cells", "value": 2.2, "unit": "µM"}]}, {"compound": "COC1C(N(C)CCO)CC2OC1(C)n1c3ccccc3c3c4c(c5c6ccccc6n2c5c31)C(=O)NC4O", "note": "(stereo not drawn) [Compound No. 1-β]", "values": [{"measurement": "selective inhibitory activity on protein kinase C, compared with UCN-01", "setting": "Protein kinase C", "value": "have a selective inhibitory activity on protein kinase C, compared with UCN-01"}, {"measurement": "IC50 PKC", "setting": "Protein kinase C", "value": 19, "unit": "ng/mL"}, {"measurement": "PKA/PKC", "setting": "Protein kinase C", "value": 20}, {"measurement": "IC50", "setting": "Protein kinase A", "value": 0.703, "unit": "µM"}]}, {"compound": "COC1C(N(C)CCO)CC2OC1(C)n1c3ccccc3c3c4c(c5c6ccccc6n2c5c31)C(=O)NC4O", "note": "(stereo not drawn) [Compound No. 1]", "values": [{"measurement": "IC50", "setting": "HeLa S3 cells", "value": 2.2, "unit": "µM"}]}, {"compound": "COC1C(N(C)C(=O)CN(C)C)CC2OC1(C)n1c3ccccc3c3c4c(c5c6ccccc6n2c5c31)C(=O)NC4O", "note": "(stereo not drawn) [Compound No. 7]", "values": [{"measurement": "IC50", "setting": "HeLa S3 cells", "value": 1.5, "unit": "µM"}]}, {"compound": "COC1C(N(C)CC(O)CO)CC2OC1(C)n1c3ccccc3c3c4c(c5c6ccccc6n2c5c31)C(=O)NC4O", "note": "(stereo not drawn) [Compound No. 2]", "values": [{"measurement": "IC50", "setting": "HeLa S3 cells", "value": 1.9, "unit": "µM"}]}, {"compound": "COC1C(N(C)CCCC(=O)O)CC2OC1(C)n1c3ccccc3c3c4c(c5c6ccccc6n2c5c31)C(=O)NC4O", "note": "(stereo not drawn) [Compound No. 3]", "values": [{"measurement": "IC50", "setting": "HeLa S3 cells", "value": 4.6, "unit": "µM"}]}, {"compound": "CN[C@@H]1C[C@H]2O[C@@](C)([C@@H]1OC)n1c3ccccc3c3c4c(c5c6ccccc6n2c5c31)C(=O)N[C@@H]4O", "note": "[UCN-01, reference compound]", "values": [{"measurement": "IC50 PKC", "setting": "Protein kinase C", "value": 2, "unit": "ng/mL"}, {"measurement": "PKA/PKC", "setting": "Protein kinase C", "value": 10}]}, {"compound": "COC1C(N(C)CCO)CC2OC1(C)n1c3ccccc3c3c4c(c5c6ccccc6n2c5c31)C(=O)NC4O", "note": "(stereo not drawn) [Compound No. 1-α]", "values": [{"measurement": "selective inhibitory activity on protein kinase C, compared with UCN-01", "setting": "Protein kinase C", "value": "have a selective inhibitory activity on protein kinase C, compared with UCN-01"}, {"measurement": "IC50 PKC", "setting": "Protein kinase C", "value": 2.2, "unit": "ng/mL"}, {"measurement": "PKA/PKC", "setting": "Protein kinase C", "value": 118}, {"measurement": "IC50", "setting": "Protein kinase A", "value": 0.494, "unit": "µM"}, {"measurement": "Number of platelets, relative value", "setting": "platelets; Day 0 (= 100)", "value": 100, "unit": "%"}, {"measurement": "Number of platelets, individual mouse", "setting": "platelets; [1]", "value": "81.8 and 89.6 and 75.0 and 89.7 and 97.0 and 86.5"}, {"measurement": "Number of platelets (mean)", "setting": "platelets; [1]", "value": 86.6}, {"measurement": "Number of platelets, relative value", "setting": "platelets; Day 7, relative to Day 0", "value": 156.4, "unit": "%"}, {"measurement": "Number of platelets, individual mouse", "setting": "platelets; Day 7", "value": "128.3 and 119.2 and 130.1 and 153.8 and 141.0 and 140.1"}, {"measurement": "Number of platelets (mean)", "setting": "platelets; Day 7", "value": 135.4}, {"measurement": "Number of platelets, relative value", "setting": "platelets; Day 14, relative to Day 0", "value": 139.8, "unit": "%"}, {"measurement": "Number of platelets, individual mouse", "setting": "platelets; Day 14", "value": "113.7 and 122.5 and 118.8 and 145.9 and 121.2 and 101.7"}, {"measurement": "Number of platelets (mean)", "setting": "platelets; Day 14", "value": 121.1}, {"measurement": "Number of platelets, relative value", "setting": "platelets; Day 17, relative to Day 0", "value": 146.7, "unit": "%"}, {"measurement": "Number of platelets, individual mouse", "setting": "platelets; Day 17", "value": "115.0 and 113.6 and 111.9 and 159.1 and 137.1 and 125.5"}, {"measurement": "Number of platelets (mean)", "setting": "platelets; Day 17", "value": 127.0}, {"measurement": "Number of platelets, relative value", "setting": "platelets; Day 28, relative to Day 0", "value": 135.1, "unit": "%"}, {"measurement": "Number of platelets, individual mouse", "setting": "platelets; Day 28", "value": "117.3 and 123.5 and 119.0 and 113.7 and 105.8 and 125.3"}, {"measurement": "Number of platelets (mean)", "setting": "platelets; Day 28", "value": 117.4}]}]}
